The record followed here is patent US4463005A, “Bicyclic guanidines” (Imperial Chemical Industries PLC, priority 1981, dated 1984).

For data set [1], the system named is anaesthetised rats. The experiment in a line: intravenous toxicity in anaesthetised rats. The format is in vivo. Conditions: two anaesthetised rats, ten times the dose giving approximate 50% inhibition of gastric secretion in the anaesthetised rat. The procedure: (§1) No overt toxicity or side effects were noted during the rat or dog tests. The compound 4-[3-(4-[2-(2,2,2-trifluoroethyl)guanidino]pyrimid-2-ylthio)propyl]-imidazole was administered intravenously to groups of two anaesthetised rats and four conscious mice at doses which were respectively ten times and one hundred times the dose, in mg./kg., which produced an approximate 50% inhibition of gastric secretion in the anaesthetised rat.

The subject of data set [2] is conscious mice. The experiment in a line: intravenous toxicity in conscious mice. It is filed as in vivo. Conditions: four conscious mice, one hundred times the dose giving approximate 50% inhibition of gastric secretion in the anaesthetised rat. As for the experimental part: as §1

For the compound `NC(=NCC(F)(F)F)Nc1ccnc(SCCCc2c[nH]cn2)n1.O=C(O)/C=C\C(=O)O` [Example 2, 4-[3-(4-[2-(2,2,2-trifluoroethyl)guanidino]pyrimid-2-ylthio)propyl]imidazole dihydrogen maleate], the toxic symptoms entry in data set [1] and in data set [2] was “No toxic symptoms were noted” each time.
